Results as given in US7115614B2, “Method of treating brain ischemia” (Kyowa Hakko Kogyo Co., Ltd., priority 1997, dated 2006).
Several values for one entry are separate records, joined by “and”; a condition that tells them apart may be missing. Equal values may be shown once.

How the values were obtained:
dd-strain male mice = test: Acute toxicity test (minimum lethal dose); type: in vivo; conditions: oral administration, mortality seven days after the administration
Description: Test compounds were orally or intraperitoneally administered to groups of dd-strain male mice weighing 20±1 g, each group consisting of three mice.

dopaminergic neurons = test: Inhibitory action on neurodegeneration: MPTP HCl-treated mice, specific [3H]-mazindol binding in the striatum; type: in vivo, C57BL/6NCrj mice; conditions: for amount of specifically bound [3H]-mazindol in the striatum: striatum removed after 1 week, mean ± standard error
Protocol: The experiment was conducted according to the method of Sundstrom et al. (Brain. Res. Bulletin, 21, 257–263 (1988)).
In the experiment, 9- to 10-week-old male C57BL/6NCrj mice (supplied by Nippon Charles River) were used. During the period of preliminary breeding, the animals were kept in a laboratory at room temperature (22 to 24° C.) under 50 to 60% humidity and allowed food and water ad libitum.
1-Methyl-4-phenyl-1,2,3,6-tetrahydropyridine hydrochloride (abbreviated hereinafter as MPTP HCl (RBI Co., Ltd.)) was dissolved at a concentration of 4 mg/ml in physiological saline. A test compound was suspended at a concentration of 1 mg/ml in 0.3% […]. Each test group consisted of 9 to 10 animals, and a control group was intraperitoneally given physiological saline, and an MPTP HCl administration group and an MPTP HCl+test compound administration group were intraperitoneally given MPTP HCl (40 mg/kg).
After 1 hour, the control group and the MPTP HCl administration group were orally given 0.3% Tween, and the MPTP HCl+test compound administration group was orally given the test compound (10 mg/kg). After 1 week, the animals were decapitated, and the striatum was removed therefrom under cooling on ice. The striatum was stored in a deep freezer (<−80° C.) before a binding experiment.
A [^3H]-mazindol binding test was conducted in the following method. A striatum and 300 μl of buffer (120 mM NaCl, 5 mM KCl, 50 mM Tris, pH 7.9) were put into a micro-centrifuge tube and homogenized by portable homogenizer S-203 (manufactured by Ikeda Rika) and centrifuged at 15,000 rpm, 4° C. for 5 minutes (by KUBOTA 1710). The precipitates were suspended in 300 μl of buffer and then centrifuged again at 15,000 rpm, 4° C. for 5 minutes. The precipitates were suspended in 500 μl of buffer and then distributed into four test tubes in 100 μl portions. The remaining suspension (100 μl) was used for protein quantification. To determine non-specific binding, nomifensine maleate (RBI Co., Ltd.) (final concentration: 10 μM) as an inhibitor of dopamine uptake was added to two test tubes among the four test tubes. The binding reaction was initiated by adding 25 μl of [^3H]-mazindol (final concentration: 10 nM) (Spec. Act. 888 GBq/mmol, a product of NET). The mixture was incubated for 1 hour under cooling on ice, and the striatum homogenate was adsorbed onto a glass filter (Whatman, GF/B) in a cell harvester and washed three times with 5 ml of buffer. The radioactivity on the glass filter was measured with a liquid scintillation counter. For each striatum, specific [^3H]-mazindol binding was determined by subtracting the average of non-specific [^3H]-mazindol binding from the average of total [^3H]-mazindol binding.
Protein quantification was conducted by use of a Bio-Rad DC protein assay kit (Bio-Rad Co., Ltd.) with bovine serum albumin (Sigma Co., Ltd.) as a standard. Specific [^3H]-mazindol binding was expressed as the amount of bound [^3H]-mazindol per unit weight of protein, and the mean±standard error was determined for each group (10 animals).
In Table 2, the results are expressed in terms of the amount of specifically bound [^3H]-mazindol (fmol/mg protein) in the striatum.

[1] = MPTP HCl 40 mg/kg i.p., test compound 10 mg/kg orally after 1 hour

| SMILES | minimum lethal dose (MLD) (dd-strain male mice) | amount of specifically bound [3H]-mazindol in the striatum (dopaminergic neurons; [1]) [fmol/mg protein] | reduction of the amount of specifically bound [3H]-mazindol by administration of MPTP HCl (dopaminergic neurons; statement in words, 10 mg/kg orally, MPTP HCl mice) | amount of specifically bound [3H]-mazindol in the striatum (dopaminergic neurons; MPTP HCl 40 mg/kg i.p. alone (0.3% Tween orally after 1 hour), hydrochloride) |
| --- | --- | --- | --- | --- |
| CCn1c(=O)c2c(nc(/C=C/c3ccc(OC)c(OC)c3)n2C)n(CC)c1=O [Compound 1, (E)-1,3-diethyl-8-(3,4-dimethoxystyryl)-7-methylxanthine] | greater than 1000 mg/kg | 950.9 ± 54.1 | inhibited |  |
| CCCn1c(=O)c2c(nc(/C=C/c3ccc(OC)c(OC)c3)n2C)n(CCC)c1=O [Compound 2, (E)-8-(3,4-dimethoxystyryl)-1,3-dipropyl-7-methylxanthine] |  | 784.8 ± 41.6 |  |  |
| CCn1c(=O)c2c(nc(/C=C/c3cc(OC)c4c(c3)OCO4)n2C)n(CC)c1=O [Compound 3, (E)-1,3-diethyl-8-(3-methoxy-4,5-methylenedioxystyryl)-7-methylxanthine] |  | 794.9 ± 28.5 |  |  |
| COc1cc(/C=C/c2nc3c(c(=O)n(C)c(=O)n3C)n2C)cc(OC)c1OC [Compound 4, (E)-8-(3,4,5-trimethoxystyryl)caffeine] |  | 923.5 ± 51.1 |  |  |
| CN1CC=C(c2ccccc2)CC1.Cl [MPTP HCl, 1-Methyl-4-phenyl-1,2,3,6-tetrahydropyridine hydrochloride, reference compound] |  |  |  | 674.2 ± 38.1 fmol/mg protein and 616.3 ± 32.8 fmol/mg protein and 621.2 ± 27.7 fmol/mg protein |
